According to ChEMBL document CHEMBL1125556, “Fluoroquinolones: relationships between structural variations, mammalian cell cytotoxicity, and antimicrobial activity” (J Med Chem, 1992):
Converted amounts (≈) assume the structure as drawn.

Experiments:
V79 = assay: Mammalian cell cytotoxicity test in chinese hamster V79 cells (clonogenic cytotoxicity); format: functional, cell-based; settings: Cricetulus griseus, V79; read-out: IC50
[1] = Antibacterial activity against five Gram-negative bacteria; format: functional; settings: read-out: MIC

With CC1CN(c2cc3c(cc2F)c(=O)c(C(=O)O)cn3C2CC2)CC(C)N1 (stereo not drawn) the IC50 (V79) was > 500 µg/mL and the MIC [1] was 0.08 µg/mL (≈ 0.223 µM).

For Nc1c(N2CCC(N)C2)c(F)cc2c(=O)c(C(=O)O)cn(C3CC3)c12 (stereo not drawn), the IC50 (V79) was 260 µg/mL (≈ 751 µM) and the MIC [1] was 0.53 µg/mL (≈ 1.53 µM).

Compound CNCC1(C)CCN(c2nc3c(cc2F)c(=O)c(C(=O)O)cn3C2CC2)C1 (stereo not drawn) has an IC50 (V79) of 58 µg/mL (≈ 155 µM) and an MIC [1] of 0.6 µg/mL (≈ 1.6 µM).

Work on CC1CN(c2c(F)cc3c(=O)c(C(=O)O)cn(C4CC4)c3c2F)CC(C)N1 (stereo not drawn) yielded an IC50 (V79) of 150 µg/mL (≈ 397 µM) and an MIC [1] of 0.05 µg/mL (≈ 0.132 µM).

In the case of CC1(n2cc(C(=O)O)c(=O)c3cc(F)c(N4CCC(N)C4)c(F)c32)CC1 (stereo not drawn), the IC50 (V79) is reported as 160 µg/mL (≈ 440 µM) and the MIC [1] is reported as 0.3 µg/mL (≈ 0.826 µM).

Work on CCNCC1CCN(c2c(F)cc3c(=O)c(C(=O)O)cn(C4CC4)c3c2OC)C1 (stereo in doubt; 26d) yielded an IC50 (V79) of 22 µg/mL (≈ 54.5 µM) and an MIC [1] of 0.26 µg/mL (≈ 0.644 µM).

NC1CCN(c2c(F)cc3c(=O)c(C(=O)O)cn(C4CC4)c3c2F)CC1 gave an IC50 (V79) of 23 µg/mL (≈ 63.3 µM) and an MIC [1] of 0.2 µg/mL (≈ 0.55 µM).

Compound NCC1CCN(c2c(F)cc3c(=O)c(C(=O)O)cn(C4CC4)c3c2C(F)(F)F)C1 (stereo not drawn) has an IC50 (V79) of 38 µg/mL (≈ 91.9 µM) and an MIC [1] of 0.52 µg/mL (≈ 1.26 µM).

NC1CCN(c2cc3c(cc2F)c(=O)c(C(=O)O)cn3C2CC2)CC1 showed an IC50 (V79) of 230 µg/mL (≈ 666 µM) and an MIC [1] of 0.26 µg/mL (≈ 0.753 µM).

For NC1CCCN(c2c(F)cc3c(=O)c(C(=O)O)cn(C4CC4)c3c2F)C1 (stereo not drawn), the IC50 (V79) was 53 µg/mL (≈ 146 µM) and the MIC [1] was 0.13 µg/mL (≈ 0.358 µM).

In the case of CC1CN(c2c(F)cc3c(=O)c(C(=O)O)cn(C4CC4)c3c2C(F)(F)F)CC(C)N1 (stereo not drawn), the IC50 (V79) is reported as > 500 µg/mL and the MIC [1] is reported as 0.91 µg/mL (≈ 2.13 µM).

For CC1(N)CCN(c2c(F)cc3c(=O)c(C(=O)O)cn(-c4ccc(F)cc4F)c3c2C(F)(F)F)C1 (stereo not drawn), the IC50 (V79) was 18 µg/mL (≈ 37.1 µM) and the MIC [1] was 2.07 µg/mL (≈ 4.26 µM).

In the case of CCNCC1CCN(c2c(F)cc3c(=O)c(C(=O)O)cn(C4CC4)c3c2[N+](=O)[O-])C1 (stereo not drawn), the IC50 (V79) is reported as 67 µg/mL (≈ 160 µM) and the MIC [1] is reported as 1.05 µg/mL (≈ 2.51 µM).

For CNCC1(C)CCN(c2c(F)cc3c(=O)c(C(=O)O)cn(C4CC4)c3c2OC)C1 (stereo not drawn), the IC50 (V79) was 120 µg/mL (≈ 297 µM) and the MIC [1] was 0.52 µg/mL (≈ 1.29 µM).

In the case of COc1c(F)c(N2CCC(N)C2)c(Cl)c2c1c(=O)c(C(=O)O)cn2C1CC1 (stereo not drawn), the IC50 (V79) is reported as > 500 µg/mL and the MIC [1] is reported as 2.08 µg/mL (≈ 5.25 µM).

For CSc1c(F)c(N2CCC(N)C2)cc2c1c(=O)c(C(=O)O)cn2C1CC1 (stereo not drawn), the IC50 (V79) was 92 µg/mL (≈ 244 µM) and the MIC [1] was > 1.58 µg/mL.

In the case of CCNCC1CCN(c2c(F)cc3c(=O)c(C(=O)O)cn(CC(F)(F)F)c3c2F)C1 (stereo not drawn), the IC50 (V79) is reported as 58 µg/mL (≈ 134 µM) and the MIC [1] is reported as 1.82 µg/mL (≈ 4.2 µM).

In the case of NC1CCN(c2nc3c(cc2F)c(=O)c(C(=O)O)cn3C2CC2)CC1, the IC50 (V79) is reported as 100 µg/mL (≈ 289 µM) and the MIC [1] is reported as 0.23 µg/mL (≈ 0.664 µM).

Work on NC1CCCN(c2nc3c(cc2F)c(=O)c(C(=O)O)cn3C2CC2)C1 (stereo not drawn) yielded an IC50 (V79) of 100 µg/mL (≈ 289 µM) and an MIC [1] of 0.4 µg/mL (≈ 1.15 µM).

In the case of O=C(O)c1cn(C2CC2)c2nc(N3CCCC3)c(F)cc2c1=O, the IC50 (V79) is reported as 58 µg/mL (≈ 183 µM) and the MIC [1] is reported as 0.26 µg/mL (≈ 0.819 µM).

CCNCC1CCN(c2cc3c(cc2F)c(=O)c(C(=O)O)cn3CC)C1 (stereo not drawn) showed an IC50 (V79) of 310 µg/mL (≈ 858 µM) and an MIC [1] of 0.56 µg/mL (≈ 1.55 µM).

For COc1c(N2CCC(CN)C2)c(F)cc2c(=O)c(C(=O)O)cn(C3CC3)c12 (stereo not drawn), the IC50 (V79) was 10 µg/mL (≈ 26.6 µM) and the MIC [1] was 0.11 µg/mL (≈ 0.293 µM).

Compound COc1c(N2CCCC(N)C2)c(F)cc2c(=O)c(C(=O)O)cn(C3CC3)c12 (stereo not drawn) has an IC50 (V79) of 69 µg/mL (≈ 184 µM) and an MIC [1] of 0.23 µg/mL (≈ 0.613 µM).

Work on CNCC1(C)CCN(c2c(F)cc3c(=O)c(C(=O)O)cn(C4CC4)c3c2Cl)C1 (stereo not drawn) yielded an IC50 (V79) of 23 µg/mL (≈ 56.4 µM) and an MIC [1] of 0.26 µg/mL (≈ 0.637 µM).

Work on NC1CCCN(c2c(F)cc3c(=O)c(C(=O)O)cn(C4CC4)c3c2Cl)C1 (stereo not drawn) yielded an IC50 (V79) of 24 µg/mL (≈ 63.2 µM) and an MIC [1] of 0.07 µg/mL (≈ 0.184 µM).

In the case of O=C(O)c1cn(C2CC2)c2cc(N3CCCC3)c(F)cc2c1=O, the IC50 (V79) is reported as 38 µg/mL (≈ 120 µM) and the MIC [1] is reported as 0.2 µg/mL (≈ 0.632 µM).

With CC1CN(c2c(F)cc3c(=O)c(C(=O)O)cn(-c4ccc(F)cc4F)c3c2C(F)(F)F)CCN1 (stereo not drawn) the IC50 (V79) was > 500 µg/mL and the MIC [1] was 4.14 µg/mL (≈ 8.53 µM).

For O=C(O)c1cn(C2CC2)c2c(F)c(N3CCCC3)c(F)cc2c1=O, the IC50 (V79) was 120 µg/mL (≈ 359 µM) and the MIC [1] was 0.1 µg/mL (≈ 0.299 µM).

CCNCC1CCN(c2c(F)cc3c(=O)c(C(=O)O)cn(-c4ccc(F)cc4F)c3c2Cl)C1 (stereo not drawn) gave an IC50 (V79) of 130 µg/mL (≈ 271 µM) and an MIC [1] of 1.05 µg/mL (≈ 2.19 µM).
